# According to ChEMBL document CHEMBL4739717, “Methods of treating cartilage disorders through inhibition of clk and dyrk” (2020):
# How the values were obtained:
# [1] = molecular target: Dual specificity tyrosine-phosphorylation-regulated kinase 1A (Homo sapiens, UniProt Q13627); test: Inhibition of recombinant DYRK1A (unknown origin) using Ser/Thr 18 peptide as substrate incubated for 1 hr in presence of ATP by FRET assay
# [2] = Effect on Wnt signaling pathway in human SW480 cells harbouring TCF/LEF luciferase reporter gene and SP5-Luc reporter gene incubated for 36 to 48 hrs by luminescence assay; format: cell-based
SMILES,EC50 [1],EC50 [2]
O=C(Nc1cc2cc(-c3cncc(NCC4(F)CNC4)n3)ncc2cn1)C1CC1,,383 nM
CC(C)CC(=O)Nc1cncc(-c2ccc3[nH]nc(-c4nc5c(N6CCN(C)CC6)cccc5[nH]4)c3c2)c1,5 nM,268 nM
O=C(Nc1cncc(-c2ccc3[nH]nc(-c4cc5c(-c6cccnc6)nccc5[nH]4)c3c2)c1)c1ccccc1,19 nM,421 nM
CC(C)CC(=O)Nc1cncc(-c2cnc3[nH]nc(-c4cc5c(-c6cc(F)cc(CNS(C)(=O)=O)c6)cncc5[nH]4)c3c2)c1,16 nM,2510 nM
Cc1n[nH]c2ccc(-c3cncc(N[C@H]4CC[C@H](O)CC4)n3)cc12,1 nM,95 nM
CC(C)Nc1cncc(-c2ccc3cnc(NC(=O)C4CCN(CCF)CC4)cc3c2)n1,,178 nM
CN1CCC(n2cc(C(=O)Nc3cc4cc(-c5cnn(C)c5)ccc4cn3)cn2)CC1,,14 nM
CN1CCN(c2ccc(NC(=O)c3n[nH]c4ccc(-c5cncc(NC(=O)C6CC6)c5)cc34)cn2)CC1,1 nM,80 nM
Cc1cc2[nH]nc(C(=O)Nc3ccc(CN4CCCC4)cc3)c2cc1-c1cccnc1,,1090 nM
O=C(Nc1ccnnc1)c1n[nH]c2ccc(-c3cccnc3)cc12,1 nM,106 nM
O=C(Nc1cnccc1NC(=O)C1CC1)c1n[nH]c2ccc(-c3cccnc3)cc12,6 nM,68 nM
O=C(Nc1cnccn1)c1n[nH]c2ccc(-c3cncc(CN4CCCCC4)c3)cc12,1 nM,289 nM
CN(C)CCN(C)c1ccc(NC(=O)c2n[nH]c3ccc(-c4cncc(CN5CCCCC5)c4)cc23)cn1,1 nM,65 nM
CNc1nc(NCc2ncccn2)c2c(-c3ccc4ncccc4c3)c[nH]c2n1,7 nM,73.3 nM
O=C(Nc1ccc(-c2ccccc2)nc1)c1n[nH]c2ccc(-c3cncc(CN4CCCCC4)c3)cc12,7 nM,101 nM
O=C(Nc1cc2cc(-c3cncc(NC4CCNCC4)n3)ccc2cn1)C1CC(F)(F)C1,,381 nM
O=C(Nc1cccnc1)c1n[nH]c2ccc(-c3cncc(NC(=O)N4CCOCC4)c3)cc12,2 nM,1250 nM
Fc1cccc(-c2cncc3[nH]c(-c4n[nH]cc4C#Cc4cncc(OC5CCNCC5)c4)nc23)c1,56 nM,4640 nM

# Continued, values first:
EC50 [1],EC50 [2],SMILES
97 nM,3990 nM,CS(=O)(=O)NCc1cc(F)cc(-c2nccc3[nH]c(-c4n[nH]c5ncc(-c6cncc(OCc7ccccc7)c6)cc45)cc23)c1
1 nM,176 nM,CN(C)C(=O)Nc1cncc(-c2ccc3[nH]nc(C(=O)Nc4cccnc4)c3c2)c1
1 nM,40 nM,O=C(Nc1ccnnc1)c1n[nH]c2ccc(-c3cncc(CN4CCCCC4)c3)cc12
1 nM,49 nM,O=C(Nc1ccc(N2CCC(O)CC2)nc1)c1n[nH]c2ccc(-c3cncc(CN4CCCCC4)c3)cc12
3 nM,> 10000 nM,Nc1cncc(-c2cnc3[nH]nc(-c4cc5c(-c6ccncc6)cncc5[nH]4)c3c2)c1
5 nM,253 nM,CN(C)CCOc1cncc(-c2cnc3[nH]nc(-c4nc5c(-c6cccc(F)c6)nccc5[nH]4)c3c2)c1
4 nM,335 nM,Cc1ncc(NC(=O)c2n[nH]c3ccc(-c4cnc(C)n4C)cc23)s1
2 nM,330 nM,CN(C)Cc1cncc(NC(=O)c2n[nH]c3ccc(-c4cncc(CN5CCCC5)c4)cc23)c1
99 nM,> 10000 nM,CC(C)CC(=O)Nc1cncc(-c2cc3c(-c4cc5c(-c6cc(F)cc(CNS(C)(=O)=O)c6)cncc5[nH]4)n[nH]c3cn2)c1
1 nM,37 nM,CN1CCN(Cc2ccc(NC(=O)c3n[nH]c4ccc(-c5cccnc5)cc34)cn2)CC1
3 nM,125 nM,O=C(Nc1ccc2c(c1)OCCO2)c1n[nH]c2ccc(-c3cncc(CN4CCCCC4)c3)cc12
